From BindingDB's records for doi:10.1210/endo.135.6.7988476 (Mcgill University, 1994)
pKi: −log10 of the molar value. Bridge positions count the residues as written; N and C are the ends. Square brackets hold non-standard residues; d marks the D form. Peptide text beside a SMILES is read from it. * marks the point of attachment. NH(1-naphthylmethyl) = c1ccc2c(CN*)cccc2c1; Phe(4-Cl) = N[C@@H](Cc1ccc(Cl)cc1)C(=O)O; dPhe(4-Cl) = N[C@H](Cc1ccc(Cl)cc1)C(=O)O; 2Nal = N[C@@H](Cc1ccc2ccccc2c1)C(=O)O; d1Nal = N[C@H](Cc1cccc2ccccc12)C(=O)O; d2Nal = N[C@H](Cc1ccc2ccccc2c1)C(=O)O; 1Nal = N[CH](Cc1cccc2ccccc12)C(=O)O; Thr(ol) = C[CH](O)[CH](N)CO; Abu = CC[C@H](N)C(=O)O

How the values were obtained:
[1] = molecular target: Somatostatin receptor type 1 (Homo sapiens, UniProt P30872)
Sequence of Somatostatin receptor type 1 (P30872 whole entry): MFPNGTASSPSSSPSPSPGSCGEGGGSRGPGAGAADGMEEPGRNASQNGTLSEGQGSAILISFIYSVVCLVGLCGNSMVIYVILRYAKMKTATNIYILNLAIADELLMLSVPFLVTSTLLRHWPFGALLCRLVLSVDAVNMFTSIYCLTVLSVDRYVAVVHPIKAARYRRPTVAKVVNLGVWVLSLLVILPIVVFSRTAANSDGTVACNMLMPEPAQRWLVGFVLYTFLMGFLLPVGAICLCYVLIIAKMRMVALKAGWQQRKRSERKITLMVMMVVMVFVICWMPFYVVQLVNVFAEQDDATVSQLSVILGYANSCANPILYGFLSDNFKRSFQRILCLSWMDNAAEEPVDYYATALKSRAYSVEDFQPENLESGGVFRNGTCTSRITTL

[2] = molecular target: Somatostatin receptor type 3 (Homo sapiens, UniProt P32745)
Sequence of Somatostatin receptor type 3 (P32745 whole entry): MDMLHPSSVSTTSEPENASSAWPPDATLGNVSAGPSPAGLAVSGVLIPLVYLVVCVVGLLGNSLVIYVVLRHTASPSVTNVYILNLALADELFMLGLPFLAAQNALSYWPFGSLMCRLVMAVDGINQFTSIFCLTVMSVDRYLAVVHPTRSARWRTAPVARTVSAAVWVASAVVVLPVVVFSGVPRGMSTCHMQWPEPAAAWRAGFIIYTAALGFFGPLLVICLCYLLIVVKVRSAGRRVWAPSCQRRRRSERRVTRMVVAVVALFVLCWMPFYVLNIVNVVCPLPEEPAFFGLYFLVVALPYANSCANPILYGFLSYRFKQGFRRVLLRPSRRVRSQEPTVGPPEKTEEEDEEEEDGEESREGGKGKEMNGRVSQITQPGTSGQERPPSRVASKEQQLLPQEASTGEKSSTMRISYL

[3] = molecular target: Somatostatin receptor type 2 (Homo sapiens, UniProt P30874)
Sequence of Somatostatin receptor type 2 (P30874 whole entry): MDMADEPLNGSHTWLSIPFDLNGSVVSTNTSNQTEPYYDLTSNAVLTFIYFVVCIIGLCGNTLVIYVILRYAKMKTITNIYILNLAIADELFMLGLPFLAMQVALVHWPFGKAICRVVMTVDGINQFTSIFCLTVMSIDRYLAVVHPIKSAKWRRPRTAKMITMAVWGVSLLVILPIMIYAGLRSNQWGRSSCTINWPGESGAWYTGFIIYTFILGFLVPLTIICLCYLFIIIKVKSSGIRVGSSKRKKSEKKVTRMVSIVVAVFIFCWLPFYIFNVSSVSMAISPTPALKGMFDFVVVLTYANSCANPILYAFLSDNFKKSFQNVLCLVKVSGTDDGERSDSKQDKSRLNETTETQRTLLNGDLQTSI

[4] = molecular target: Somatostatin receptor type 4 (Homo sapiens, UniProt P31391)
Sequence of Somatostatin receptor type 4 (P31391 whole entry): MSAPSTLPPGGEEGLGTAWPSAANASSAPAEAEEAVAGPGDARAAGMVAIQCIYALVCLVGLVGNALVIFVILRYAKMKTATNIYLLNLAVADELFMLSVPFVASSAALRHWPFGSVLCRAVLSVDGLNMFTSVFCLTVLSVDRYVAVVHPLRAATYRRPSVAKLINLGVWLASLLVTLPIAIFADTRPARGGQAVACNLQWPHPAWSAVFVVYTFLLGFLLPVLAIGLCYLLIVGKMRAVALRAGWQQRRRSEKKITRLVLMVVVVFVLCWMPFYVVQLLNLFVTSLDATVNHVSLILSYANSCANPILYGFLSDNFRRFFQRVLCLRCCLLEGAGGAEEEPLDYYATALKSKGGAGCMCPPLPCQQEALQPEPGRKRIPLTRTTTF

| pKi [1] | pKi [2] | pKi [3] | pKi [4] | SMILES |
| --- | --- | --- | --- | --- |
| 6.97 | 7.84 | – | – | CC(C)[C@@H]1NC(=O)[C@H](CCCCN)NC(=O)[C@@H](Cc2c[nH]c3ccccc23)NC(=O)[C@H](Cc2ccc(O)cc2)NC(=O)[C@@H](C)N(C)C(=O)[C@H](Cc2ccccc2)NC1=O |
| – | 8.11 | 8.57 | 7.57 | CC1NC(=O)C(CCCCN)NC(=O)C(Cc2c[nH]c3ccccc23)NC(=O)C(Cc2ccc(O)cc2)NC(=O)C(NC(=O)C(N)Cc2ccccc2)CSSCC(C(=O)NCc2cccc3ccccc23)NC1=O (configuration not stated) [BIM 23034] (H-FCYWKAC-{NH(1-naphthylmethyl)}; disulfide 2-7; configuration not given here) |
| – | – | 9.62 | 6.00 | CC(C)[C@@H]1NC(=O)[C@H](CCCCN)NC(=O)[C@@H](Cc2c[nH]c3ccccc23)NC(=O)[C@H](Cc2ccc(O)cc2)NC(=O)[C@@H](NC(=O)[C@H](N)Cc2ccc3ccccc3c2)CSSC[C@@H](C(=O)N[C@@H](Cc2ccc3ccccc3c2)C(N)=O)NC1=O [BIM 23042] (H-[d2Nal]CY[dW]KVC[2Nal]-NH2; disulfide 2-7) |
| – | – | 6.00 | 7.31 | C[C@H](NC(=O)[C@H](N)Cc1ccccc1)C(=O)N[C@@H](Cc1ccccc1)C(=O)N[C@H](Cc1c[nH]c2ccccc12)C(=O)N[C@@H](CCCCN)C(=O)N[C@H](C(=O)N[C@@H](C)C(=O)N[C@H](C(N)=O)[C@@H](C)O)[C@@H](C)O [BIM 23051] (H-[dF]AF[dW]KTAT-NH2) |
| 6.85 | 7.97 | 6.00 | 7.78 | CC(C)[C@H](NC(=O)[C@H](CCCCN)NC(=O)[C@@H](Cc1c[nH]c2ccccc12)NC(=O)[C@H](Cc1ccc(O)cc1)NC(=O)[C@H](Cc1ccccc1)NC(=O)[C@H](N)Cc1ccccc1)C(=O)N[C@@H](Cc1ccccc1)C(=O)N[C@H](Cc1cccc2ccccc12)C(N)=O [BIM 23056] (H-[dF]FY[dW]KVF[d1Nal]-NH2) |
| – | – | 6.00 | 7.41 | CC(C)[C@H](NC(=O)[C@H](CCCCN)NC(=O)[C@@H](Cc1c[nH]c2ccccc12)NC(=O)[C@H](Cc1ccc(O)cc1)NC(=O)[C@H](Cc1ccc(Cl)cc1)NC(=O)[C@H](N)Cc1ccccc1)C(=O)N[C@@H](Cc1ccccc1)C(=O)N[C@H](C(N)=O)[C@@H](C)O [BIM 23057] (H-[dF][Phe(4-Cl)]Y[dW]KVFT-NH2) |
| 7.21 | 7.84 | 9.15 | 7.25 | CC(O)C1NC(=O)C(CCCCN)NC(=O)C(Cc2c[nH]c3ccccc23)NC(=O)C(Cc2ccc(O)cc2)NC(=O)C(NC(=O)C(N)Cc2ccccc2)CSSCC(C(=O)NCc2cccc3ccccc23)NC1=O (configuration not stated) [BIM 23060] (H-FCYWKTC-{NH(1-naphthylmethyl)}; disulfide 2-7; configuration not given here) |
| 6.00 | 7.84 | 7.35 | 6.00 | CC[C@H](NC(=O)[C@@H](N)Cc1ccc(Cl)cc1)C(=O)N[C@@H](Cc1ccc(O)cc1)C(=O)N[C@H](Cc1c[nH]c2ccccc12)C(=O)N[C@@H](CCCCN)C(=O)N[C@H](C(=O)N[C@@H](C)C(=O)N[C@H](Cc1ccccc1)C(N)=O)C(C)C [BIM 23067] (H-[Phe(4-Cl)][Abu]Y[dW]KVA[dF]-NH2) |
| – | 8.81 | 8.81 | 8.01 | C[C@@H](O)[C@H](NC(=O)[C@H](Cc1ccccc1)NC(=O)[C@@H](NC(=O)[C@H](CCCCN)NC(=O)[C@@H](Cc1c[nH]c2ccccc12)NC(=O)[C@H](Cc1ccc(O)cc1)NC(=O)[C@H](Cc1ccc(Cl)cc1)NC(=O)[C@H](N)Cc1ccccc1)[C@@H](C)O)C(N)=O [BIM 23068] (H-[dF][Phe(4-Cl)]Y[dW]KTFT-NH2) |
| 6.94 | 8.85 | 8.01 | 8.08 | CC(C)[C@H](NC(=O)[C@H](CCCCN)NC(=O)[C@@H](Cc1c[nH]c2ccccc12)NC(=O)[C@H](Cc1ccc(O)cc1)NC(=O)[C@H](Cc1ccccc1)NC(=O)[C@H](N)Cc1ccccc1)C(=O)N[C@@H](Cc1ccccc1)C(=O)N[C@H](C(N)=O)[C@@H](C)O [BIM-23058] (H-[dF]FY[dW]KVFT-NH2) |
| 6.00 | 7.51 | 8.27 | 7.35 | CC(C)[C@@H]1NC(=O)[C@H](CCCCN)NC(=O)[C@@H](Cc2c[nH]c3ccccc23)NC(=O)[C@H](Cc2ccc(O)cc2)NC(=O)[C@@H](NC(=O)[C@H](N)Cc2ccccc2)CSSC[C@@H](C(=O)N[C@@H](Cc2c[nH]c3ccccc23)C(N)=O)NC1=O [CAS_71306] (H-[dF]CY[dW]KVCW-NH2; disulfide 2-7) |
| 7.50 | – | 7.87 | 6.85 | C[C@@H](O)[C@H](NC(=O)[C@H](Cc1ccccc1)NC(=O)[C@@H](NC(=O)[C@H](CCCCN)NC(=O)[C@@H](Cc1c[nH]c2ccccc12)NC(=O)[C@H](Cc1ccccc1)NC(=O)[C@H](Cc1ccccc1)NC(=O)[C@H](N)Cc1ccccc1)[C@@H](C)O)C(N)=O [CAS_133073-82-2] (H-[dF]FF[dW]KTFT-NH2) |
| – | – | 7.58 | 6.00 | C[C@@H](O)[C@H](NC(=O)[C@H](Cc1ccccc1)NC(=O)[C@@H](NC(=O)[C@H](CCCCN)NC(=O)[C@@H](Cc1c[nH]c2ccccc12)NC(=O)[C@H](Cc1ccc(O)cc1)NC(=O)[C@H](Cc1ccc(Cl)cc1)NC(=O)[C@H](N)Cc1ccc2ccccc2c1)[C@@H](C)O)C(N)=O [CAS_150155-63-8] (H-[d2Nal][Phe(4-Cl)]Y[dW]KTFT-NH2) |
| – | – | 7.26 | 6.00 | CC(C)[C@H](NC(=O)[C@H](CCCCN)NC(=O)[C@@H](Cc1c[nH]c2ccccc12)NC(=O)[C@H](Cc1ccc(O)cc1)NC(=O)[C@H](C)NC(=O)[C@H](N)Cc1ccc(Cl)cc1)C(=O)N[C@@H](C)C(=O)N[C@@H](Cc1ccc2ccccc2c1)C(N)=O [CAS_150155-67-2] (H-[dPhe(4-Cl)]AY[dW]KVA[2Nal]-NH2) |
| – | 7.88 | 8.23 | 6.00 | CC(C)[C@H](NC(=O)[C@H](CCCCN)NC(=O)[C@@H](Cc1c[nH]c2ccccc12)NC(=O)[C@H](Cc1ccc(O)cc1)NC(=O)[C@H](C)NC(=O)[C@H](N)Cc1ccc2ccccc2c1)C(=O)N[C@@H](C)C(=O)N[C@H](C(N)=O)[C@@H](C)O [D-Nal-Ala-Tyr-D-Trp-Lys-Val-Ala-Thr-NH2] (H-[d2Nal]AY[dW]KVAT-NH2) |
| 7.39 | 7.94 | 9.40 | 7.24 | C[C@@H](O)[C@H](NC(=O)[C@@H]1CSSC[C@H](NC(=O)[C@H](N)Cc2ccc3ccccc3c2)C(=O)N[C@@H](Cc2ccc(O)cc2)C(=O)N[C@H](Cc2c[nH]c3ccccc23)C(=O)N[C@@H](CCCCN)C(=O)N[C@@H]([C@@H](C)O)C(=O)N1)C(N)=O [D-Nal-c[Cys-Tyr-D-Trp-Lys-Thr-Cys]-Thr-NH2] |
| 6.00 | 10.05 | 10.62 | 6.00 | CC[C@@H]1NC(=O)[C@H](CCCCN)NC(=O)[C@@H](Cc2c[nH]c3ccccc23)NC(=O)[C@H](Cc2ccc(O)cc2)NC(=O)[C@@H](NC(=O)[C@H](N)Cc2ccccc2)CSSC[C@@H](C(=O)N[C@@H](Cc2ccc3ccccc3c2)C(N)=O)NC1=O [D-Phe-Cys-Tyr-D-Trp-Lys-Abu-Cys-Nal-NH] (H-[dF]CY[dW]K[Abu]C[2Nal]-NH2; disulfide 2-7) |
| – | 8.09 | – | 6.00 | CC[C@@H]1NC(=O)[C@H](CCCCN)NC(=O)[C@@H](Cc2c[nH]c3ccccc23)NC(=O)[C@H](Cc2ccc(O)cc2)NC(=O)[C@@H](NC(=O)[C@H](N)Cc2ccccc2)CSSC[C@@H](C(=O)N[C@H](C(N)=O)[C@@H](C)O)NC1=O [D-Phe-L-Cys(1)-L-Tyr-D-Trp-L-Lys-L-Abu-L-Cys(1)-L-Thr-NH2] |
| – | – | 6.00 | 6.30 | CC(C)[C@H](NC(=O)[C@H](CCCCN)NC(=O)[C@@H](Cc1c[nH]c2ccccc12)NC(=O)[C@H](Cc1ccc(O)cc1)NC(=O)[C@H](Cc1ccccc1)NC(=O)[C@H](N)Cc1ccccc1)C(=O)N[C@@H](Cc1ccccc1)C(=O)N[C@H](Cc1ccccc1)C(N)=O [D-Phe-Phe-Tyr-D-Trp-Lys-Val-Phe-D-Phe-NH2] (H-[dF]FY[dW]KVF[dF]-NH2) |
| 7.15 | 7.14 | 9.59 | 6.00 | CC(C)C1NC(=O)C(CCCCN)NC(=O)C(Cc2c[nH]c3ccccc23)NC(=O)C(Cc2ccc(O)cc2)NC(=O)C(NC(=O)C(N)Cc2cccc3ccccc23)CSSCC(C(=O)NC(CO)C(C)O)NC1=O (configuration not stated) [DC23-60] (H-[1Nal]CYWKVC[Thr(ol)]; disulfide 2-7; configuration not given here) |
| – | 7.16 | 10.55 | 6.68 | CC(O)C1NC(=O)C(CCCCN)NC(=O)C(Cc2c[nH]c3ccccc23)NC(=O)C(Cc2ccccc2)NC(=O)C(NC(=O)C(N)Cc2ccccc2)CSSCC(C(=O)NCc2cccc3ccccc23)NC1=O (configuration not stated) [EC5-21] (H-FCFWKTC-{NH(1-naphthylmethyl)}; disulfide 2-7; configuration not given here) |
| – | – | 8.08 | 6.00 | CC(C)[C@H](NC(=O)[C@H](CCCCN)NC(=O)[C@@H](Cc1c[nH]c2ccccc12)NC(=O)[C@H](Cc1ccc(O)cc1)NC(=O)[C@H](C)NC(=O)[C@H](N)Cc1ccccc1)C(=O)N[C@@H](C)C(=O)N[C@@H](Cc1ccc2ccccc2c1)C(N)=O [L-Alaninamide,D-phenylalanyl-L-alanyl-L-tyrosyl-D-tryptophyl-L-lysyl-L-valyl-L-alanyl-3-(2-naphthalenyl)-(9CI)] (H-[dF]AY[dW]KVA[2Nal]-NH2) |

| SMILES | pKi [1] | pKi [2] | pKi [3] | pKi [4] |
| --- | --- | --- | --- | --- |
| CC(C)[C@@H]1NC(=O)[C@H](CCCCN)NC(=O)[C@@H](Cc2c[nH]c3ccccc23)NC(=O)[C@H](Cc2ccc(O)cc2)NC(=O)[C@@H](NC(=O)[C@H](N)Cc2ccc3ccccc3c2)CSSC[C@@H](C(=O)N[C@H](C(N)=O)[C@@H](C)O)NC1=O [3-(2-Naphtyl)-D-Ala-L-Cys(1)-L-Tyr-D-Trp-L-Lys-L-Val-L-Cys(1)-L-Thr-NH2] | – | 7.37 | 8.74 | – |
